We go through two compounds from PubChem BioAssay AID1259407 (Chemical Carcinogenesis Research Information System (CCRIS), 2018).

This series has as its system CCRIS mutagenicity, Ames/micronucleus/aberration tests. Nature of the series: CCRIS mutagenicity studies.
Where [1] appears, read: Test System: AMES SALMONELLA TYPHIMURIUM, Strain/Indicator: TA100, Metabolic Activation: NONE, Method: PREINCUBATION

Activity calls are given as the source filed them. How the calls were made is not given here.

As for `O=C1OC(O)C(C(Cl)Cl)=C1Cl` (stereo not given), the mutagenic call was “inactive; negative” (Test System: AMES SALMONELLA TYPHIMURIUM, Strain/Indicator: RSJ100, Metabolic Activation: NONE, Method: PREINCUBATION); “inactive; negative” (Test System: AMES SALMONELLA TYPHIMURIUM, Strain/Indicator: RSJ100, Metabolic Activation: RAT LIVER S-9, Method: PREINCUBATION); “active; positive” (Test System: AMES SALMONELLA TYPHIMURIUM, Strain/Indicator: TA92, Metabolic Activation: NONE, Method: STANDARD PLATE); “active; positive” (Test System: AMES SALMONELLA TYPHIMURIUM, Strain/Indicator: TA97, Metabolic Activation: NONE, Method: STANDARD PLATE); “active; positive” (Test System: AMES SALMONELLA TYPHIMURIUM, Strain/Indicator: TA98, Metabolic Activation: NONE, Method: PREINCUBATION); “active; positive” (Test System: AMES SALMONELLA TYPHIMURIUM, Strain/Indicator: TA98, Metabolic Activation: NONE, Method: STANDARD PLATE). Moreover, the mutagenic call is “inactive; negative” (Test System: AMES SALMONELLA TYPHIMURIUM, Strain/Indicator: TA98, Metabolic Activation: RAT LIVER S-9, AROCLOR 1254, Method: STANDARD PLATE); “active; positive” (Test System: AMES SALMONELLA TYPHIMURIUM, Strain/Indicator: TA98, Metabolic Activation: RAT LIVER S-9, Method: PREINCUBATION); “inactive; negative” (Test System: AMES SALMONELLA TYPHIMURIUM, Strain/Indicator: TA98, Metabolic Activation: RAT, LIVER, S-9, PHENOBARBITAL AND 5,6-BENZOFLAVONE, Method: PREINCUBATION); “active; positive” under setting [1]; “inactive; negative” (Test System: AMES SALMONELLA TYPHIMURIUM, Strain/Indicator: TA100, Metabolic Activation: RAT LIVER S-9, AROCLOR 1254, Method: STANDARD PLATE); “inactive; negative” (Test System: AMES SALMONELLA TYPHIMURIUM, Strain/Indicator: TA100, Metabolic Activation: RAT LIVER S-9, Method: PREINCUBATION). Moreover, the mutagenic call (Test System: AMES SALMONELLA TYPHIMURIUM, Strain/Indicator: TA100, Metabolic Activation: RAT, LIVER, S-9, AROCLOR 1254, Method: STANDARD PLATE) is “active; positive”; the mutagenic call (Test System: AMES SALMONELLA TYPHIMURIUM, Strain/Indicator: TA100, Metabolic Activation: RAT, LIVER, S-9, PHENOBARBITAL AND 5,6-BENZOFLAVONE, Method: PREINCUBATION) is “inactive; negative”; the mutagenic call (Test System: AMES SALMONELLA TYPHIMURIUM, Strain/Indicator: TA102, Metabolic Activation: NONE, Method: STANDARD PLATE) is “active; positive”; the mutagenic call (Test System: AMES SALMONELLA TYPHIMURIUM, Strain/Indicator: TA1535, Metabolic Activation: NONE, Method: STANDARD PLATE) is “active; positive”; the mutagenic call (Test System: AMES SALMONELLA TYPHIMURIUM, Strain/Indicator: TA1538, Metabolic Activation: NONE, Method: STANDARD PLATE) is “active; positive”; the mutagenic call (Test System: AMES SALMONELLA TYPHIMURIUM, Strain/Indicator: YG7112, Metabolic Activation: NONE, Method: PREINCUBATION) was “active; positive”. In addition, the mutagenic call is, setting by setting: (Test System: AMES SALMONELLA TYPHIMURIUM, Strain/Indicator: YG7113, Metabolic Activation: NONE, Method: PREINCUBATION) “active; positive”; (Test System: AMES SALMONELLA TYPHIMURIUM, Strain/Indicator: YG7119, Metabolic Activation: NONE, Method: PREINCUBATION) “active; positive”; (Test System: Ames Salmonella typhimurium, Strain/Indicator: TA100, Metabolic Activation: None, Method: Preincubation) “active; positive”; (Test System: Ames Salmonella typhimurium, Strain/Indicator: TA104, Metabolic Activation: None, Method: Plate incorporation) “active; positive”; (Test System: Ames Salmonella typhimurium, Strain/Indicator: TA1975P, Metabolic Activation: None, Method: Preincubation) “active; positive (at higher doses)”; (Test System: CHINESE HAMSTER OVARY, Strain/Indicator: CHO-KTL3 (HPRT)/6-THIOGUANINE, Metabolic Activation: NONE) “active; positive”. Also, the mutagenic call was “inactive; negative” (Test System: CHINESE HAMSTER V-79, Strain/Indicator: V-79 (HGPRT), Metabolic Activation: NONE); “active; positive” (Test System: E. COLI, Strain/Indicator: CL101P, Metabolic Activation: NONE, Method: PREINCUBATION); “active; positive” (Test System: E. COLI, Strain/Indicator: CL102P, Metabolic Activation: NONE, Method: PREINCUBATION); “active; positive” (Test System: E. COLI, Strain/Indicator: CL103P, Metabolic Activation: NONE, Method: PREINCUBATION); “active; positive” (Test System: E. COLI, Strain/Indicator: CL104P, Metabolic Activation: NONE, Method: PREINCUBATION); “active; positive” (Test System: E. COLI, Strain/Indicator: CL105P, Metabolic Activation: NONE, Method: PREINCUBATION). In addition, the mutagenic call is “inactive; negative” (Test System: E. COLI, Strain/Indicator: CL106P, Metabolic Activation: NONE, Method: PREINCUBATION); “inactive; negative” (Test System: E. COLI, Strain/Indicator: WP2, Metabolic Activation: NONE, Method: PREINCUBATION); “active; positive” (Test System: E. COLI, Strain/Indicator: WP2 UVRA, Metabolic Activation: NONE, Method: PREINCUBATION); “inactive; negative” (Test System: E. coli, Strain/Indicator: XL-1 Blue MRA P2 (Spi), Method: Standard plate); “inactive; negative” (Test System: E. coli, Strain/Indicator: YG6020 (Gpt)/6-Thioguanine, Method: Standard plate); “active; positive” (Test System: HUMAN H1A1V2 CELLS, Strain/Indicator: TK LOCUS, Metabolic Activation: NONE, Method: SUSPENSION/PLATE). Further, the mutagenic call is, setting by setting: (Test System: HUMAN LYMPHOBLASTOID CELLS, Strain/Indicator: AHH-1 CELLS (TK+/TK-), Metabolic Activation: NONE, Method: SUSPENSION/PLATE) “active; positive”; (Test System: HUMAN LYMPHOBLASTOID CELLS, Strain/Indicator: MCL-5 CELLS (TK+/TK-), Metabolic Activation: NONE, Method: SUSPENSION/PLATE) “active; positive”; (Test System: MOUSE LYMPHOMA, Strain/Indicator: L5178Y (TK+/TK-), Metabolic Activation: NONE, Method: SUSPENSION/PLATE) “active; positive”; (Test System: UDS HUMAN HEPATOCYTES, Strain/Indicator: THY INCORP, Metabolic Activation: NONE, Method: AUTORADIOGRAPHY) “active; positive”; (Test System: UDS MOUSE HEPATOCYTES, Strain/Indicator: THY INCORP, Metabolic Activation: IN VIVO, Method: AUTORADIOGRAPHY) “inactive; negative”; (Test System: UDS MOUSE HEPATOCYTES, Strain/Indicator: THY INCORP, Metabolic Activation: NONE, Method: AUTORADIOGRAPHY) “active; positive”. Further, the mutagenic call is “active; positive” (Test System: UDS RAT HEPATOCYTES, Strain/Indicator: THY INCORP, Metabolic Activation: NONE, Method: AUTORADIOGRAPHY) and “active; positive” (Test System: UDS RAT HEPATOCYTES, Strain/Indicator: THYMIDINE INCORPORATION, Metabolic Activation: NONE, Method: AUTORADIOGRAPHY).
As for `Cc1cc2c3c(ccc2c2ccccc12)C(O)C(O)[C@@H]1O[C@@H]31` (stereo not given in full), the mutagenic call under setting [1] is “inactive; negative”.
